From paper PMC12836451, “Cyclic Peptide–Polymer Conjugate Nanotubes for Delivery of SN‐38 in Treatment of Colorectal Cancer Model” (Advanced Healthcare Materials, 2025)
Where a name gives a salt, the structure may show the parent alone. Read-outs that look alike come from different tables or passages of the source.

Legend:
[1] = system: CT26 spheroids; assay: 3D spheroid growth assay; format: cell-based, murine; settings: 10 µM, control grew by over 300 µm
Experimental: CT26 cells were harvested and seeded in a non‐tissue culture‐treated, U‐bottom‐shaped 96‐well plates at a density of 500 cells per well (200 µL media per well), before centrifugation at 500 xG for 10 minutes. The plate incubated and the spheroids allowed to form over a period of days (typically 5–8). […] Non‐treated/Control spheroids received fresh media.

[2] = Pharmacokinetics study in mice (plasma, LC-MS, non-compartmental); settings: non-tumor female BALB/c mice, i.v., irinotecan 15 mg kg−1 or SN-38 nanotubes 10 mg kg−1 drug, SN-38 = prodrug and hydrolysed forms combined
[3] = system: CT26 cells; assay: MTS cell viability assay; format: cell-based, murine; settings: Mus musculus, CT26, 48 h
Experimental: Cells were typically grown to 70–80% confluence before passaging, and cells were not used past 20 passages total.
The wells were then treated with 20 µL of MTS reagent (Promega, CellTiter 96 AQeuous One Solution Cell Proliferation Assay) for 4 h, before UV absorbance reading on Biotek Cytation 3 Plate reader (490 nm). The relative cell viability was determined by comparison to untreated cells or cells with DMSO or EtOH at a range of concentrations.

[4] = system: CT26 xenograft; settings: CT26 xenograft mice, three i.v. doses
[5] = cited from earlier work
From the text: Despite significant scientific advances in recent decades, cancer remains one of the most formidable challenges for modern medicine. The rising rates of colorectal cancer (CRC) diagnoses, particularly amongst younger people, exemplify the new complexities faced. Despite efforts to promote early detection and fast onset of treatment, the prognosis for CRC remains grim, ranking as one of the deadliest malignancies worldwide.

CCc1c2c(nc3ccc(OC(=O)N4CCC(N5CCCCC5)CC4)cc13)-c1cc3c(c(=O)n1C2)COC(=O)[C@]3(O)CC [Irinotecan, irinotecan hydrochloride]
increase of spheroid diameter over 5 days [1]: 40 µm | C max [2]: 29.6 µM | IC50 ([3]; n = 3, read-out: concentration required to achieve more than 50% cell death): > 10 µM | tolerability (body weight, welfare scoring) [4]: well tolerated | reduction of potency compared to SN-38 [5]: 100–1000 fold

CCc1c2c(nc3ccc(O)cc13)-c1cc3c(c(=O)n1C2)COC(=O)[C@]3(O)CC [SN-38, 7‐ethyl‐10‐hydroxycamptothecin]
IC50 ([3]; concentrations are SN-38 concentration, n = 3, read-out: IC50): ~0.2 µM | aqueous solubility ([5]; reason for not testing in vivo): poor aqueous solubility
